The structures appear in SMILES notation. “And” between values parts separate entries of the source, which are not always exact repeats. Identical values can stand only once. Toxic doses and inconclusive results are not listed. Residues, ends and D or L forms follow the SMILES beside them.

For the assay, the system named is BDF1 mice, P388 leukemia ip, median survival T/C. Put plainly: NCI In Vivo Anticancer Drug Screen. Data for tumor model P388 Leukemia (intraperitoneal) in B6D2F1 (BDF1) mice. As to conditions: endpoint: median survival time, higher = longer survival. The procedure, abridged: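 Steps: implant the tumour, treat one group with compound and another with vehicle, record survival, then divide treated by control.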

[1] abbreviates: dose: 100.0 mg/kg/injection, schedule: Q01DX009 (ip), vehicle: saline with Tween-80.
Setting [2] is: dose: 200.0 mg/kg/injection, schedule: Q01DX009 (ip), vehicle: saline with Tween-80.
[3] abbreviates: dose: 25.0 mg/kg/injection, schedule: Q04DX003 (ip), vehicle: saline with Tween-80.
The mark [4] stands for this setting: dose: 50.0 mg/kg/injection, schedule: Q04DX003 (ip), vehicle: saline with Tween-80.
[5] abbreviates: dose: 100.0 mg/kg/injection, schedule: Q04DX003 (ip), vehicle: saline with Tween-80.
[6] abbreviates: dose: 50.0 mg/kg/injection, schedule: Q01DX009 (ip), vehicle: saline with Tween-80.

`CCOC(=O)Nc1nc(NC(=O)OCC)c(Cl)nc1Cl`: the T/C is, setting by setting: (dose: 12.5 mg/kg/injection, schedule: Q01DX009 (ip), vehicle: water) 113 % of control; (dose: 12.5 mg/kg/injection, schedule: Q04DX003 (ip), vehicle: water) 90 % of control and 104 % of control; (dose: 25.0 mg/kg/injection, schedule: Q01DX009 (ip), vehicle: water) 99 % of control; (dose: 25.0 mg/kg/injection, schedule: Q04DX003 (ip), vehicle: water) 92 % of control and 104 % of control; (dose: 50.0 mg/kg/injection, schedule: Q01DX009 (ip), vehicle: water) 111 % of control; (dose: 50.0 mg/kg/injection, schedule: Q04DX003 (ip), vehicle: water) 102 % of control. Moreover, the T/C is 99 % of control (dose: 100.0 mg/kg/injection, schedule: Q01DX009 (ip), vehicle: water); 100 % of control and 101 % of control (dose: 100.0 mg/kg/injection, schedule: Q04DX003 (ip), vehicle: water); 90 % of control (dose: 200.0 mg/kg/injection, schedule: Q01DX009 (ip), vehicle: water); 94 % of control and 96 % of control (dose: 200.0 mg/kg/injection, schedule: Q04DX003 (ip), vehicle: water); 101 % of control (dose: 400.0 mg/kg/injection, schedule: Q01DX009 (ip), vehicle: water); 112 % of control (dose: 400.0 mg/kg/injection, schedule: Q04DX003 (ip), vehicle: water). Also, where the note is “dose: 500.0 mg/kg/injection, schedule: Q04DX003 (ip), vehicle: water”, the T/C was 96 % of control.
For the compound `CCOC(=O)NP(=O)(N1CC1)N1CC1`, the T/C was 105 % of control (dose: 2.1 mg/kg/injection, schedule: Q04DX003 (ip), vehicle: saline); 110 % of control (dose: 3.1 mg/kg/injection, schedule: Q04DX003 (ip), vehicle: saline); 272 % of control (dose: 11.0 mg/kg/injection, schedule: Q04DX003 (ip), vehicle: saline); 225 % of control (dose: 25.0 mg/kg/injection, schedule: Q04DX003 (ip), vehicle: saline); 333 % of control and 220 % of control (dose: 33.0 mg/kg/injection, schedule: Q04DX003 (ip), vehicle: saline); 300 % of control and 172 % of control and 195 % of control (dose: 50.0 mg/kg/injection, schedule: Q04DX003 (ip), vehicle: saline). The T/C (dose: 75.0 mg/kg/injection, schedule: Q04DX003 (ip), vehicle: saline) was 88 % of control and 95 % of control.
For the compound `COc1ccc([I+]c2ccc(OC)cc2)cc1`, the T/C reads like this: (dose: 1.56 mg/kg/injection, schedule: Q01DX009 (ip), vehicle: saline) 100 % of control; (dose: 3.13 mg/kg/injection, schedule: Q01DX009 (ip), vehicle: saline) 100 % of control; (dose: 6.25 mg/kg/injection, schedule: Q01DX009 (ip), vehicle: saline) 109 % of control; (dose: 12.5 mg/kg/injection, schedule: Q04DX003 (ip), vehicle: saline sonified) 100 % of control; (dose: 25.0 mg/kg/injection, schedule: Q04DX003 (ip), vehicle: saline sonified) 100 % of control; (dose: 50.0 mg/kg/injection, schedule: Q04DX003 (ip), vehicle: saline sonified) 100 % of control.
For the compound `Oc1ccc(C(O)(c2ccccc2)c2ccc(O)c3ccccc23)c2ccccc12`, the T/C by setting is: under setting [1], 95 % of control; under setting [2], 103 % of control; (dose: 400.0 mg/kg/injection, schedule: Q01DX009 (ip), vehicle: saline with Tween-80) 110 % of control.
Turning to `Cn1ncc2c(N)ncnc21`, the T/C reads like this: (dose: 0.75 mg/kg/injection, schedule: Q01DX009 (ip), vehicle: Klucel (hydroxypropylcellulose) (HPC)) 100 % of control; (dose: 1.5 mg/kg/injection, schedule: Q01DX009 (ip), vehicle: Klucel (hydroxypropylcellulose) (HPC)) 100 % of control; (dose: 3.0 mg/kg/injection, schedule: Q01DX009 (ip), vehicle: Klucel (hydroxypropylcellulose) (HPC)) 109 % of control; (dose: 6.0 mg/kg/injection, schedule: Q01DX009 (ip), vehicle: Klucel (hydroxypropylcellulose) (HPC)) 122 % of control.
Consider `C1CSCSC1`, for which the T/C reads like this: (dose: 6.25 mg/kg/injection, schedule: Q04DX003 (ip), vehicle: Klucel (hydroxypropylcellulose) (HPC)) 100 % of control; (dose: 12.5 mg/kg/injection, schedule: Q04DX003 (ip), vehicle: Klucel (hydroxypropylcellulose) (HPC)) 95 % of control; (dose: 25.0 mg/kg/injection, schedule: Q04DX003 (ip), vehicle: Klucel (hydroxypropylcellulose) (HPC)) 87 % of control.
Turning to `CC(C)C(N)C(=O)NC(Cc1ccc(O)cc1)C(=O)NC(C(=O)O)C(C)C` (stereo not drawn) (H-Val-Tyr-Val-OH; configuration not given here), the T/C (dose: 50.0 mg/kg/injection, schedule: Q01DX005 (ip), vehicle: saline) is 89 % of control; the T/C (dose: 100.0 mg/kg/injection, schedule: Q01DX005 (ip), vehicle: saline) is 97 % of control; the T/C (dose: 200.0 mg/kg/injection, schedule: Q01DX005 (ip), vehicle: saline) was 92 % of control.
As to `CCC(C)(O)C(=O)OC1C(=O)OC2CC3C(C)CC(=O)C(O)C3(C)C3C4(O)OCC23C1C(C)C4O` (stereo not given), the T/C by setting is: (dose: 0.12 mg/kg/injection, schedule: Q01DX009 (ip), vehicle: saline with Tween-80) 121 % of control; (dose: 0.25 mg/kg/injection, schedule: Q01DX009 (ip), vehicle: saline with Tween-80) 118 % of control; (dose: 0.5 mg/kg/injection, schedule: Q01DX009 (ip), vehicle: saline with Tween-80) 116 % of control; (dose: 1.0 mg/kg/injection, schedule: Q01DX009 (ip), vehicle: saline with Tween-80) 121 % of control; (dose: 8.0 mg/kg/injection, schedule: Q01DX009 (ip), vehicle: saline with Tween-80) 122 % of control; (dose: 16.0 mg/kg/injection, schedule: Q01DX009 (ip), vehicle: saline with Tween-80) 152 % of control.
`C=[CH][Sn][CH2]CCC`: the T/C runs as follows: (dose: 12.5 mg/kg/injection, schedule: Q01DX009 (ip), vehicle: Klucel (hydroxypropylcellulose) (HPC)) 100 % of control; (dose: 25.0 mg/kg/injection, schedule: Q01DX009 (ip), vehicle: Klucel (hydroxypropylcellulose) (HPC)) 103 % of control; (dose: 50.0 mg/kg/injection, schedule: Q01DX009 (ip), vehicle: Klucel (hydroxypropylcellulose) (HPC)) 99 % of control.
Regarding `Cc1cc2ccccc2oc1=O`, the T/C runs as follows: under setting [3], 100 % of control; under setting [4], 100 % of control; under setting [5], 100 % of control.
As to `S=C(S)NNc1ccccc1`, the T/C is, setting by setting: (dose: 25.0 mg/kg/injection, schedule: Q01DX009 (ip), vehicle: saline with Tween-80) 86 % of control; under setting [3], 110 % of control; under setting [6], 100 % of control; under setting [4], 105 % of control; under setting [1], 100 % of control; under setting [5], 100 % of control.
As to `CCOC(=O)Cn1nc(-c2ccc([N+](=O)[O-])o2)sc1=O`, the T/C under setting [6] is 110 % of control, the T/C under setting [1] is 94 % of control and the T/C under setting [2] was 117 % of control.
On to `COC(=O)/C=C/c1ccc(Cl)cc1`, for which the T/C is 95 % of control (dose: 100.0 mg/kg/injection, schedule: Q01DX009 (ip), vehicle: Klucel (hydroxypropylcellulose) (HPC)); 95 % of control (dose: 200.0 mg/kg/injection, schedule: Q01DX009 (ip), vehicle: Klucel (hydroxypropylcellulose) (HPC)); 91 % of control (dose: 400.0 mg/kg/injection, schedule: Q01DX009 (ip), vehicle: Klucel (hydroxypropylcellulose) (HPC)).
For the compound `CC1(C)N=C(N)N=C(N)N1c1ccc(C(=O)CCl)cc1`, the T/C is 108 % of control (dose: 10.0 mg/kg/injection, schedule: Q01DX009 (ip), vehicle: saline); 108 % of control (dose: 20.0 mg/kg/injection, schedule: Q01DX009 (ip), vehicle: saline); 118 % of control (dose: 40.0 mg/kg/injection, schedule: Q01DX009 (ip), vehicle: saline).
Regarding `CN=C(NC(C)C)c1ccc(NC(=O)c2ccc(C(=O)Nc3ccc(C(=NC)NC(C)C)cc3)cc2)cc1`, the T/C was 118 % of control (dose: 16.0 mg/kg/injection, schedule: Q04DX003 (ip), vehicle: saline with Tween-80); 150 % of control (dose: 42.2 mg/kg/injection, schedule: Q04DX003 (ip), vehicle: saline with Tween-80); 150 % of control (dose: 64.0 mg/kg/injection, schedule: Q04DX003 (ip), vehicle: saline with Tween-80); 150 % of control (dose: 96.0 mg/kg/injection, schedule: Q04DX003 (ip), vehicle: saline with Tween-80).

These data come from PubChem BioAssay AID328 (DTP/NCI, 2004).
